Experimental data reported in US4620871A (priority 1980, dated 1986).

Assays:
[1] = tested on: Maize; test: Inhibition of the decomposition of chlorophyll in maize; conditions: for Chlorophyll content: 100 mg green plant, control 0.65; for activation at 200 ppm: Zea mays, 96 h, read-out: Promotion
Protocol: (§1) Thereafter chlorphyll was extracted from the leaf segments with methanol. To determine the starting state, chlorophyll was extracted with methanol from untreated leaf segments weighing 200 mg. In the control test the leaf segments, weighing 200 mg, were floated on the surface of distilled water for 4 days in the dark, and then chlorophyll was extracted from the leaf segments with methanol. […] For alfalfa and maize the chlorphyll contents of 100 mg of green plant were examined.

[2] = tested on: maize leaves; test: Fixation of 14CO2 in maize leaves (Example 36); conditions: 18 hours; for Fixation of 14CO2: fresh weight, control 5.72; for Fixation of 14CO2, %: increase over control
Protocol: (§2) The biological activities of cytokinin-like factors can be well characterized by measuring the intensity of the photosynthetic carbon dioxide fixation and the incorporation of labelled amino acids into the TCA-insoluble protein fraction. The intensity of photosynthetic carbon dioxide fixation was determined on maize leaves, utilizing ^14 CO2, whereas the incorporation of amino acids was examined on bean leaves, utilizing […]-^14 C.

[3] = tested on: Bean; test: Stimulation of photosynthesis, 14CO2 incorporation, bean leaf discs (Example 20); conditions: 2 hours; for activation at 200 ppm: foliar
Protocol: The specific radioactivities of the stock solutions were determined by liquid scintillation. In the control test untreated leaf discs were exposed to labelled carbon, dioxide, and the amount of carbon dioxide incorporated under such conditions was regarded as standard.

[4] = tested on: Alfalfa; test: Inhibition of the decomposition of chlorophyll in alfalfa; conditions: for Chlorophyll content: 200 ppm, 100 mg green plant, control 0.78; for activation at 200 ppm: Medicago sativa, 96 h, read-out: Promotion
Protocol: as §1

[5] = tested on: bean leaves; test: Incorporation of Gly-2-14C in bean leaves (Example 36); conditions: 18 hours; for Incorporation of Gly-2-14C: fresh weight, control 3.52; for Incorporation of Gly-2-14C, %: increase over control
Protocol: as §2

[6] = tested on: Soybean; test: Inhibition of the decomposition of chlorophyll in soybean leaf segments; conditions: 4 days dark
Protocol: (§3) The active agent to be tested was dissolved in distilled water to form a 200 ppm solution, and leaf segments of the plants under examination, weighing 200 mg, were floated on the surface of the solution for 4 days in the dark. Thereafter chlorphyll was extracted from the leaf segments with methanol.
(§4) To determine the starting state, chlorophyll was extracted with methanol from untreated leaf segments weighing 200 mg. In the control test the leaf segments, weighing 200 mg, were floated on the surface of distilled water for 4 days in the dark, and then chlorophyll was extracted from the leaf segments with methanol.
(§5) The chlorophyll concentration was determined by measuring the extinction of the extracts at 665 mμ.

[7] = tested on: soybean leaf segments; test: Stimulation of the protein level of soybean, glycine-14C incorporation (Example 18); conditions: 24 hours
Protocol: The active agent to be tested was dissolved in distilled water to form a 200 ppm solution, and soybean leaf segments, weighing 200 mg, were floated on the surface of the solution for 24 hours. In the control test leaf segments, weighing 200 mg, were floated on the surface of distilled water.
The leaf segments were washed with distilled water, and then treated for 3 hours with 20 ml of a solution containing labelled amino acid (glycine-^14 C; activity: 2 μCi). After this exposition period the leaf segments were washed with an aboundant amount of water, and the protein content of the leaf segments was isolated in a manner known per se. Stock solution was prepared from the isolated protein, and the specific radioactivity of the solution was determined by liquid scintillation.

[8] = tested on: Soybean; test: Total and protein nitrogen content of soybean (Example 39); type: in vivo
Source text: The effects of 1,4-dihydroxyphthalazine and salts thereof exerted on the total nitrogen content and protein nitrogen content of soybean were examined as described in Example 27. The plants were sprayed with the compositions according to the invention at the beginning of the flowering of the apical cluster.

[9] = tested on: Bean; test: Inhibition of the decomposition of chlorophyll in bean leaf segments; conditions: 4 days dark
Protocol: as §3, §4, §5

[10] = tested on: Alfalfa; test: Alfalfa field tests 1979, Boly (Example 26); type: in vivo
Source text: The effects of the compositions according to the invention exerted on the crop yield (green yield), crude protein content, protein nitrogen content and C/N ratio of alfalfa, observed under field conditions in the tests performed in 1979 at the Agricultural Combinate of Boly, Hungary, are listed in Table 17.

[11] = tested on: maize for silage; test: Maize for silage field tests 1979, Boly (Example 28); type: in vivo
Source text: The effects of the cytokinin-like regulators on the crop yield, crude protein content and real protein content of maize for silage, observed under field conditions in the tests performed in 1979 at the Agricultural Combinate of Boly, Hungary, are listed in Table 20.

[12] = tested on: hybrid maize; test: Grain yield of maize (Example 29); type: in vivo
Protocol: The compositions according to the invention were applied as seed dressing agents onto the sowing-seeds of hybrid maize in a dosis of 0.5 kg/ha. The powdery compositions were wetted with water prior to application. The stand was sprayed three times during the cultivation period: first at the four-leaves development stage with a dosis of 3 kg/ha, then prior to tasseling with a dosis of 1 kg/ha, and finally prior to pollen ripening with a dosis of 2 kg/ha. The crop was evaluated as May shelled corn.

Compound: Cn1cnc2ccccc21 [N--methyl-benzimidazolium bromide]
- Chlorophyll content ([1]; 200 ppm): 0.80 mg
- activation at 200 ppm [1]: 23%
- Fixation of 14CO2 [2]: 8.12 μCi/g
- Fixation of 14CO2, % [2]: 42%
- activation at 200 ppm [3]: 125%
- Chlorophyll content [4]: 0.83 mg
- activation at 200 ppm [4]: 6.4%
- Incorporation of Gly-2-14C [5]: 4.75 μCi/g
- Incorporation of Gly-2-14C, % [5]: 35%

Compound: N--bromoethyl-benzimidazolium bromide
- Promotion ([1]; 200 ppm): 9.2%
- Chlorophyll content ([1]; 200 ppm): 0.71 mg
- Fixation of 14CO2 [2]: 6.46 μCi/g
- Fixation of 14CO2, % [2]: 13%
- Stimulation (14CO2 incorporation) ([3]; 200 ppm): 57%
- Chlorophyll content [4]: 0.64 mg
- Incorporation of Gly-2-14C [5]: 4.36 μCi/g
- Incorporation of Gly-2-14C, % [5]: 24%

Compound: CCn1cnc2ccccc21 [N--ethyl-benzimidazolium bromide]
- Chlorophyll content ([1]; 200 ppm): 0.79 mg
- activation at 200 ppm [1]: 21.5%
- Fixation of 14CO2 [2]: 6.72 μCi/g
- Fixation of 14CO2, % [2]: 18%
- activation at 200 ppm [3]: 184%
- Chlorophyll content [4]: 0.85 mg
- activation at 200 ppm [4]: 8.9%
- Incorporation of Gly-2-14C [5]: 4.25 μCi/g
- Incorporation of Gly-2-14C, % [5]: 21%

Compound: Oc1nnc(O)c2ccccc12 [1,4-Dihydroxyphthalazine]
- Chlorophyll ([6]; 200 ppm, control 3.5): 4.2 mg
- activation at 200 ppm ([6]; Glycine max, foliar, 96 h, read-out: Promotion): 20%
- Radioactivity ([7]; 200 ppm, control 11.9): 16.1 mu Ci/100 mg
- activation at 200 ppm ([7]; Glycine max): 35.3%
- Protein nitrogen content ([8]; control 1.9): 3.8 % of dry substance
- Total nitrogen content ([8]; control 2.6): 4.6 % of dry substance
- Protein nitrogen content, increase ([8]; in vivo): 100.0%
- Total nitrogen content, increase ([8]; in vivo): 77.0%
- Chlorophyll ([9]; 200 ppm, control 4.2): 5.8 mg
- activation at 200 ppm ([9]; foliar, 96 h, read-out: Promotion): 38%

Compound: CC(C)[n+]1c[nH]c2ccccc21.[Cl-] [N--Isopropyl-benzimidazolium chloride, N-isopropyl-benzimidazolium chloride]
- Fixation of 14CO2 [2]: 10.92 μCi/g
- Fixation of 14CO2, % [2]: 92%
- C/N ratio ([10]; control 5.31): 4.20
- P2O5 content ([10]; control 8.3): 10.9 % of dry substance
- Crude protein content ([10]; control 21.3): 25.8 % of dry substance
- Green yield ([10]; control 120): 142 q/ha
- C/N ratio, decrease ([10]; in vivo): 21.0%
- Crude protein content, increase ([10]; in vivo): 21.5%
- Green yield, increase ([10]; in vivo): 18.7%
- P2O5 content, increase ([10]; in vivo): 31.7%
- P2O5 content ([11]; control 7.5): 9.8 % of dry substance
- Crude protein content ([11]; control 13.2): 17.1 % of dry substance
- C/N ratio ([11]; control 31.4): 23.5
- Green weight ([11]; control 310.2): 398.2 q/ha
- C/N ratio, decrease ([11]; in vivo): 25.4%
- Crude protein content, increase ([11]; in vivo): 29.7%
- Green weight, increase ([11]; in vivo): 28.4%
- P2O5 content, increase ([11]; in vivo): 30.8%
- Grain yield, increase ([12]; in vivo): 57.1%
- Grain yield ([12]; seed dressing 0.5 kg/ha + sprays 3, 1, 2 kg/ha, control 132.8): 208.5 q/ha
- Incorporation of Gly-2-14C [5]: 4.85 μCi/g
- Incorporation of Gly-2-14C, % [5]: 35%
